The test system of the test is U937 cells. As to the kind of experiment: Delivery of labeled BSA to cells (fluorescent microscope). Format: cell-based. The following applies: for Cells displaying fluorescense: overnight at 37° C. How it is done: U937 cells were grown to approximately 10^6/ml and centrifuged, washed in growth medium (RPMI), suspended in 3.5 ml of RPMI, and 0.8 ml was placed in each of four 35 mm wells. BSA-BF and BSA-F, each at a concentration of 20 mg/ml, were added to the four wells together with 200 ul of RPMI as follows:
The cell suspensions were incubated overnight at 37° C. One ml of cell suspension was placed in 2.0 ml of RPMI and centrifuged at 1000 rpm for 5 minutes. The supernatants were decanted and the cells were resuspended in 200 ul of RPMI. Samples of each cell suspension were placed on a microscope slide and examined using a fluorescent microscope.

In the case of “BSA-BF: Bovine Serum Albumin labeled by conjugation with both biotin and fluorescein”, the “Localisation of fluorescense in cells undergoing mitosis” value is listed as “bright fluorescense that was confined to the nuclei”. Also, the Cells displaying fluorescense entry (20 ul of 20 mg/ml) was “Approximately 40%”. Under “50 ul of 20 mg/ml”, the Cells displaying fluorescense result is “Approximately 40%”.
“BSA-F: Bovine Serum Albumin labeled with fluourescein alone [reference compound]”: the Cells displaying fluorescense is on record as less than 5% (20 ul of 20 mg/ml) and less than 5% (50 ul of 20 mg/ml).

For the origin of these results see patent publication US20040023909A1, “Process for preventing or reducing undesirable immunological effects to infectious agents in subjects” (Enzo Therapeutics, Inc, priority 1997, published 2004).
